Laboratory results reported in patent publication US5624959A, “Naphthyloxyacetic acid” (Ono Pharmaceutical Co., Ltd., priority 1993, dated 1997).

Biological target: T1, prostanoide receptor subtype (mouse EP3a) (Mus musculus, UniProt P30557)
T1 construct: expressed in transfected cells
T1 sequence (P30557 1-365): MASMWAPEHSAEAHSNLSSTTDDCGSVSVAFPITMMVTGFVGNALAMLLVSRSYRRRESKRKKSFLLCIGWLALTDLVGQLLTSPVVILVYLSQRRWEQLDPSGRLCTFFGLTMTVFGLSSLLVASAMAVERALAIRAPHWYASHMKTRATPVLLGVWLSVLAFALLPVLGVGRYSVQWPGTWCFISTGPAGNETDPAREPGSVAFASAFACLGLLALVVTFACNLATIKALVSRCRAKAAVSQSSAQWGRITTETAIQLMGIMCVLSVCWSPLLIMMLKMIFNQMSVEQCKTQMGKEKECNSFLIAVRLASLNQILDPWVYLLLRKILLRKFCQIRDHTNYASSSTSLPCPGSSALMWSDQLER
Assay: Binding assay using expression cell of prostanoide receptor subtype ([3H]PGE2 competition, membrane fraction)
Conditions: mouse EP3a membrane fraction (0.5 mg/ml); [3H]-PGE2 2.5 nM; pH 6.0; 1 hour at room temperature; Ki=IC50/(1+([c]/Kd)); read-out: Ki (dissociation constant)
Procedure: (i) Binding assay using expression cell of prostanoide receptor subtype
The preparation of membrane fraction was carried out according to the method of Sugimoto et al [J. Biol. Chem. 267, 6463-6466(1992)], using prostanoide receptor subtype (mouse EP3a).
The standard assay mixture containing a membrane fraction (0.5 mg/ml), [^3 H]PGE2 in a final volume of […] was incubated for 1 hour at room temperature. The reaction was terminated by the addition of 3 ml of ice-cooled buffer. The mixture was rapidly filtered through a Whatman GF/B glass filter. The radioactivity associated with the filter was measured in ACS II (Amarsham) by liquid scintillation counting.
Kd and Bmax values were determined from Scatchard plots [Ann. N.Y. Acad. Sci., 51,660(1949)]. Non-specific binding was calculated as the bond in the presence of an excess (2.5 mM) of unlabeled PGE2. In the experiment for competition of specific [^3 H]-PGE2 binding by the compounds of the present invention, [^3 H]-PGE2 was added at a concentration of 2.5 nM and the compounds of the present invention were at a concentration of 1 mM.
The following buffer was used in all reactions. Buffer: 10 mM potassium phosphate (pH 6.0), 1 mM EDTA, 10 mM MgCl2, 0.1 M NaCl
The dissociation constant (Ki) of each compound was calculated by the following equation.

Compound	Ki
O=C(O)COc1cccc2c3c(ccc12)CCC(NS(=O)(=O)/C=C/c1ccccc1)C3 (stereo not shown) [Example 3(ff), 6-[(2-phenylvinyl)sulfonylamino]-5,6,7,8-tetrahydrophenanthrene-1-yl-oxyacetic acid]	0.0025 µM
O=C(O)COc1cccc2c(NS(=O)(=O)C=C(c3ccccc3)c3ccccc3)cccc12 [Example 3(i), 5-[(2,2-diphenylvinyl)sulfonylamino]naphthyloxyacetic acid]	0.037 µM
O=C(O)COc1cccc2c1CCCC2NS(=O)(=O)C=C(c1ccccc1)c1ccccc1 (stereo not shown) [Example 3(p), 5-[(2,2-diphenylvinyl)sulfonylamino]-5,6,7,8-tetrahydronaphthyloxyacetic acid]	0.036 µM
O=C(O)COc1cccc2c1CCCC2NS(=O)(=O)c1ccc2ccccc2c1 (stereo not shown) [Example 3(q), 5-(naphth-2-yl-sulfonylamino)-5,6,7,8-tetrahydronaphthyloxyacetic acid]	0.32 µM
O=C(O)COc1cccc2c(CCS(=O)(=O)NCC(c3ccccc3)c3ccccc3)cccc12 [Example 6(f)]	0.0075 µM

Second part, the molecule after the results:

Ki	Compound
0.0079 µM	O=C(O)COc1cccc2c1CCC=C2CCNS(=O)(=O)/C=C/c1ccccc1 [Example 3(aa), 5-[2-[(2-phenylvinyl)sulfonylamino]ethyl]-7,8-dihydronaphthyloxyacetic acid]
0.007 µM	O=C(O)COc1cccc2c(CCNS(=O)(=O)/C=C/c3ccccc3)cccc12 [Example 3(g)]
0.037 µM	O=C(O)COc1cccc2cc(CCNS(=O)(=O)/C=C/c3ccccc3)ccc12 [Example 3(h), 6-[2-[(2-phenylvinyl)sulfonylamino]ethyl]naphthyloxyacetic acid]
0.017 µM	O=C(O)COc1cccc2c(NS(=O)(=O)CCc3ccccc3)cccc12 [Example 3(v), 5-[(2-phenylethyl)sulfonylamino]naphthyloxyacetic acid]
0.028 µM	O=C(O)COc1cccc2c(CCNS(=O)(=O)CCc3ccccc3)cccc12 [Example 3(w), 5-[2-[(2-phenylethyl)sulfonylamino]ethyl]naphthyloxyacetic acid]
